Assay results: article PMC10998830 (Communications Chemistry, 2024)

Legend:
AbATPPRT [1] = biological target: T1, AbATPPRT (Acinetobacter baumannii, UniProt A0A7U3XWM9); experiment: differential scanning fluorimetry, SYPRO Orange; assay type: binding; settings: 250 μM PRATP, 8 μM enzyme, pH 8.5, 15 mM MgCl2, 100 mM KCl; unlabelled enzyme
T1 construct: gene hisG; hetero-octameric holoenzyme (two HisGS dimers flanking a HisZ tetramer) reconstituted in vitro from separately purified recombinant AbHisGS (E. coli BL21(DE3)) and AbHisZ; unlabelled (natural isotope abundance)
T1 sequence (A0A7U3XWM9 1-227): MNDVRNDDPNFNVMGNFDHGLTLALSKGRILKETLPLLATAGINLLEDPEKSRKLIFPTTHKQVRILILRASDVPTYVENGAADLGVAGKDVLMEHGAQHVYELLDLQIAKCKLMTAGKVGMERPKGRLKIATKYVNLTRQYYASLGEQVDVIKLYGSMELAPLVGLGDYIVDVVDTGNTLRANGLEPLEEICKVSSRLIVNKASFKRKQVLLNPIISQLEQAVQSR
T1 sequence (B2HWK9 1-388 partner): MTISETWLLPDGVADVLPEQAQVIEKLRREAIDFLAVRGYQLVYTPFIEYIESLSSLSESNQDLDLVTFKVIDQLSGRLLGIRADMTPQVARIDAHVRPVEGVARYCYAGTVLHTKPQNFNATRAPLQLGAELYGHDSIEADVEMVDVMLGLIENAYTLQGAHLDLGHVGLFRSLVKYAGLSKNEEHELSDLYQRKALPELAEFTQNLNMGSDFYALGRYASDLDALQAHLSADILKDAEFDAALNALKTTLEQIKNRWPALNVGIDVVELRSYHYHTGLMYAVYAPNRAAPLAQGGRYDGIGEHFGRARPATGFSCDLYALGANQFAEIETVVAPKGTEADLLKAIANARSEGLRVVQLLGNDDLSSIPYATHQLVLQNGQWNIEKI

AbATPPRT [2] = biological target: T1, AbATPPRT; experiment: dose-response of initial rate, PRATP formation; assay type: biochemical

For N=c1c2ncn([C@@H]3O[C@H](COP(=O)(O)OP(=O)(O)OP(=O)(O)O)[C@@H](O)[C@H]3O)c2ncn1[C@@H]1O[C@H](COP(=O)(O)O)[C@@H](O)[C@H]1O [PRATP], the Tm increase (AbATPPRT [1]) was “the presence of PRATP led only to marginal and mass-independent increases in Tm”.
In the case of N[C@@H](Cc1c[nH]cn1)C(=O)O [histidine], the IC50 (AbATPPRT [2]) is reported as 93 ± 6 µM.
